# How the values were obtained:
# [1] = Octanol:water partition coefficient; format: physicochemical; conditions: read-out: Octanol: water partition coefficient (log P)
# Text: Administering a better absorbed more lipophilic prodrug, which is subsequently hydrolysed to GP531, achieves an increase in the systemic availability of GP531.
# [2] = Urinary excretion of GP531 after oral dosing in rat (relative/absolute bioavailability); format: in vivo
# Description: Two separate studies were conducted in the rat using the free base and/or the water soluble hydrochloride salt of Formula Va. In the first study, equimolar doses of GP531 (20 mg/kg) were administered orally in aqueous solution to separate groups (n=3) of rats as GP531 tartrate or Formula Va hydrochloride. […] Cmax increased 6-fold and AUC over 0-4 hr increased 4-fold. In a subsequent study, using the same equimolar doses of GP531 tartrate and prodrug, the relative bioavailability of GP531 was estimated in a group of rats (n=4) by comparison of the amount of GP531 excreted in urine after dosing.
structure (smiles),measurement,setting,value
CC(C)(C)C(=O)O[C@@H]1[C@H](OC(=O)C(C)(C)C)[C@@H](CNCc2ccccc2)O[C@H]1n1cnc(C(N)=O)c1N [Formula Va],logP,[1],3.31
same,"GP531 bioavailability, free base vs hydrochloride salt of the prodrug",[2],no significant difference

# From patent publication US9492468B2, “Methods and compositions for treatment of acute heart failure” (PERICOR THERAPEUTICS, INC., priority 2008, dated 2016)
